# Assay results as given in patent US20170071840A1, “POLYPHENOL/FLAVONOID COMPOSITIONS AND METHODS OF FORMULATING ORAL HYGIENIC PRODUCTS” (VIZURI HEALTH SCIENCES LLC, priority 2015, published 2017).
# Experiments:
# [1] = Heat solubilization in Kolliphor RH-40 / Polysorbate 80; type: physicochemical; conditions: curcumin as co-solubilizer
# Description: Heat Solubilization of 10% curcumin and 4% apigenin in Kolliphor RH-40 (formerly Cremophor)
# Heat Solubilization of 10% Curcumin and 4% Apigenin in Polysorbate 80
# [2] = Solubility in PS80 via the thermal processing method; type: physicochemical
# Protocol: Apigenin/Polysorbate 80 (PS80) formulations can be made as follows: • Apigenin powder and PS80 are mixed in the ratio from about 5 to 10 wt. % of apigenin to 95 to 90 wt. % PS80.
# All solubility tests were conducted with 20 ml of PS80 contained within 80 ml Pyrex glass beakers.
# [3] = Saliva levels of apigenin in chronic 1% apigenin toothpaste users (Example 12); type: in vivo, human
# Protocol: Two subjects who have used PeroxiCare® with apigenin at a 1% concentration on a chronic basis provided saliva samples at:
# Saliva was collected at each time point in 50 ml Falcon tubes and immediately transferred to a freezer. All samples were transported to Tufts University within 24 hours of collection. Apigenin in saliva was quantified using high performance liquid chromatograph (HPLC) with electrochemical detection (ECD). Apigenin in 1 ml saliva was extracted using 3 ml acetonitrile. After 2 min of rigorous vortexing, the mixture was spun at 2,000 rpm for 15 min at 4° C. Supernatant was dried under N2 gas, reconstituted with mobile phase A, and analyzed for apigenin with HPLC-ECD. The limit of quantification (LOQ) for apigenin and EGCG in this assay is 15 and 25 ng/ml saliva, respectively.
# [4] = Solubilization in Listerine mouth rinse; type: physicochemical
# Protocol: 100 Grams of the Listerine® Resveratrol Containing Mouth Rinse Formulation was Prepared as Follows: • 1. 98.4 grams of the Listerine® caramel colored mouth rinse was added to a 300 ml Pyrex glass beaker. The pH of the Listerine® caramel colored mouth rinse was initially determined via pH indicator strips to be decidedly acidic at approximately 4.5. • 2. 1.2 grams of Resveratrol powder was added to the solution of Step 1. • 3. About 0.2 grams of fine NaOH crystals were added to the mixture from Step 2 and thoroughly mixed. A uniformly caramel colored blend resulted with a measured pH of ˜10. […] The pH of the mixture from Step 3 was adjusted to a pH 6.5 by the addition of about 0.2 grams of citric acid crystals. A transparent solution resulted with a resveratrol concentration of 1.2 mg/ml.
# • 1. 98.6 grams of the Listerine® caramel colored mouthrinse was added to a 300 ml Pyrex glass beaker. The pH of the Listerine® caramel colored mouthrinse was initially determined via pH indicator strips to be decidedly acidic at approximately 4.5. • 2. 1.2 grams of Luteolin powder was added to the solution of Step 1. • 3. About 0.2 grams of fine NaOH crystals were added to the mixture from Step 2 and thoroughly mixed. A uniformly caramel colored blend resulted with a measured pH of ˜10. […] The pH of the mixture from Step 2 was adjusted to a pH 8 by the addition of about 0.2 grams of citric acid crystals. […]
# [5] = pH for stable aqueous microemulsion; type: physicochemical; conditions: nonionic surfactants Polysorbate 80 and Cremophor/Kolliphor RH-40
# Description: In one embodiment, a flavonoid/polyphenol microemulsion can be made as follows: • The mixing of a flavonoid/polyphenol with an alkali metal component (e.g., alkali metal hydroxide(s) and/or alkaline metal salt(s)) to form an alkali metal flavonoid/polyphenol salt within an aqueous solution. • Adding a surfactant in the ratio from about 5 to 20 wt. % of the flavonoid/polyphenol to 95 to 80 wt. % of a surfactant; preferable a nonionic surfactant. • This mixture is thoroughly stirred to form a uniform clear solution. • Adjusting (e.g., acidifying) the alkali metal flavonoid/polyphenol salt with an agent (e.g., an acidic agent such as acetic acid and/or hydrochloric acid) to a pH level required to form a clear and stable microemulsion.
# Stable microemulsions with apigenin and the nonionic surfactants, Polysorbate 80 and Cremophor/Kolliphor RH-40, were achieved provided a pH level of 8.0 to 8.5 was maintained. For luteolin, it as determined that a pH of 7 was required to maintain a stable aqueous microemulsion; and for resveratrol, a pH of >4.5 to 7.5.
# Solubility in water = type: physicochemical; conditions: 20° C.
structure (smiles),measurement,setting,value
"O=c1cc(-c2ccc(O)cc2)oc2cc(O)cc(O)c12 [Apigenin, 4′,5,7,-trihydroxyflavone]",apigenin solubilized in PS 80,[1],more than 5%
same,apigenin solubilized in RH-40,[1],more than 5%
same,stable apigenin concentrate in PS80,"[2]; 5.0 wt. % apigenin in PS80, heated, cooled to ambient",50 mg/mL
same,persistence of apigenin levels in saliva post-brushing,[3],at least 8 hours
Oc1ccc(C=Cc2cc(O)cc(O)c2)cc1 [resveratrol],concentration in transparent solution,"[4]; Listerine mouth rinse, pH 6.5",1200 µg/mL
"O=c1cc(-c2ccc(O)c(O)c2)oc2cc(O)cc(O)c12 [luteolin, 3′,4′,5,7-tetrahydroxyflavone]",pH level for stable microemulsion,[5],7
same,concentration in transparent solution,"[4]; Listerine mouthrinse, pH 8",1500 µg/mL
O.Oc1cc(O)c2c(c1)O[C@H](c1ccc(O)c(O)c1)[C@@H](O)C2 [Catechin],Water Solubility,Solubility in water,~5 mg/mL
same,PS80 Solubility,"[2]; 20° C., thermal processing, not the maximum solubility levels",50 mg/mL
